For experiment [1], the system named is DU-145 (prostate). The experiment in a line: Cancer cell death assay, NCO-700 versus Calpain inhibitor 1. It is filed as cell-based, human. How it is done:
(§1) Cell death was measured quantitatively by the release of a marker intracellular enzyme, lactate dehydrogenase (LDH), from damaged or killed cells. LDH released into the extracellular fluid, was measured 24 hours after drug exposure to cancer cells and the enzyme activity was determined by the method of Decker et al. (J. Immunolog Methods 15:61-99, 1988).
Based on Experiment 1 above, the anti-cancer activity of NCO-700 and Calpain inhibitor 1 (N-acetyl-leu-leu-norleucinal, C20 H37 N3 O4) was tested in cancer cell death assays of human cancer cell line DU-145.

Experiment [2] deals with human prostate cancer cells. The experiment in a line: Subrenal capsule (SRC) tumor implant assay, prostate cancer. It is filed as in vivo, human tumor in BDF/1 mice. How it is done: FIG. 17 is a graph showing the relationship between the mean change in size of tumor (delta mean) and the dosage of NCO-700 in a sub-renal capsule assay of human prostate cancer in BDF/1 mice.
3. In Vivo Model/Subrenal Capsule (SRC) Tumor Implant Assay
A tumor implant model, where human tumors were implanted into the renal capsule of mice was performed. The tumors successfully escaped the immune system of the mouse and grew over a six-day period. The advantage of this assay is that the effect of chemotherapeutic agents can be tested in vivo. This model was developed at the University of California, Irvine by Stratton et al. (Gynecologic Oncology 17:185-188, 1984). Human tumors were implanted on day one and were exposed to drug on days two-six. The size of the implant was determined at time zero and at the end of five days of drug treatment, and the difference in size of the implanted tumor at day six, when compared to control animals not exposed to drug, is referred to herein as the delta mean.
Human cancer cells can be grown in the sub-renal capsule of mice, where for a limited period of time they escaped the detection of the mouse's immune system. This assay provides a convenient system to study the effect of drugs on the growth of tumor cells in vivo. As this is a much more time-consuming assay, and requires more drug than the in vitro assays, the effect of NCO-700 was tested on a single prostate cancer cell line. Three groups of animals (n=23 total) were tested with three concentrations of NCO-700 including, 10 mg/kg, 20 mg/kg and 40 mg/kg.

The subject of experiment [3] is breast cancer tumor cells from patients. The experiment in a line: Human tumor biopsy assay (tumor cloning system), breast tumors. It is filed as cell-based. To be noted: 20 μM NCO-700, two breast tumors. How it is done: (§2) 4. Human Tumor Biopsy Assays
(§3) where the effect of NCO-700 to enhance killing, by either vinblastine or adriamycin, of cancer cells cultured directly from patient's tumors (Von Hoff et al., Cancer Res. 43:1926-1931, 1983).
(§4) For the tumor biopsy assay, primary cell cultures were propagated directly from tumor specimens removed from patients. The cells were grown in suspension culture, treated with adriamycin or vinblastine plus NCO-700, and plated onto soft agar and incubated for two weeks before cell survival was determined.
(§5) In a final series of experiments, the effect of NCO-700 on survival of cells cultured directly from biopsied patient tumors was performed. This technique, referred to as a human tumor cloning system, was developed by Von Hoff and associates (Von Hoff et al., Cancer Res. 43:1926-1931, 1983) and was used clinically to predict the course of chemotherapy for these patients. In this method, tumor biopsies were separated into cell suspensions and treated for 1 hour with either 0.4 mg/ml vinblastine (VLB) or 0.5 mg/ml adriamycin (ADR) plus or minus 20 μM NCO-700. The cell suspensions were washed after one hour of incubation and plated with soft agar. After 14 days of incubation at 37°, the percent of colonies surviving was scored. […] In particular, the survival of tumor cells decreased to approximately 1/2 to 1/3 after exposure to NCO-700 and adriamycin. […]

The subject of experiment [4] is DU-145 (prostate). The experiment in a line: Cancer cell survival assay, DU-145. It is filed as cell-based, human. To be noted: DU-145, seven days, alone. As to the method: Cell survival was assayed in cultured tumor cells. From 500-1000 cells per well were plated in 24-welled culture dishes and exposed to drug for seven days. After drug exposure, a computerized cell imaging technique was utilized to ascertain the number of viable cells remaining in each culture. From the data, survival curves were plotted and a ED50 (drug concentration that permits 50% cell survival) were calculated.
The cancer cell survival assay is an important additional in vitro assay to assess the anti-neoplastic activity of compounds as the cells are given a prolonged exposure (seven days) to the drug. FIGS. 9-16 show the effect of increasing the dose of NCO-700 on the survival of a number of cancer cell lines. […] In the figures, the vertical axis is the object area, which is the number of surviving cancer cells calculated by a computer.

The next experiment relates to kidney tumor cells. The experiment in a line: Human tumor biopsy assay, kidney tumor. It is filed as cell-based. The note with it: 20 μM NCO-700 and 0.5 mg/ml adriamycin, 1 hour. As to the method: as §2, §3, §4, §5
A further experiment has as its system HS-578T (breast). The experiment in a line: Cancer cell death assay (LDH release), HS-578T. To be noted: HS-578T, 25 μM, 1,000 and 1,500 cells/well (FIGS. 34, 35). It is filed as cell-based, human. As to the method:
1. Cancer Cell Death Assay
as §1
A series of analogs related to NCO-700 were assayed in the cancer cell death assay. […] It should be stressed that these analogs were tested alone, without any added chemotherapeutic agent.
Based on Experiment 1 above, the anti-cancer activity of NCO-700, TOP-008, and analogs, TOP-201, 202, 203, 204, 205, 206, 207, and 007, was tested in cancer cell death assays of human cancer cell line HS-578T. In FIGS. 34 (1,000 cells/well) and 35 (1,500 cells/well), a bar graph indicates the activity of a particular analog as measured by the % LDH released (DMSO, dimethyl sulfoxide=control), with higher values of LDH released indicating greater anti-neoplastic activity. All analogs were tested at a concentration of 25 μM.
On the technique in general: LDH in the medium is a marker of cell lysis.

Molecules are shown by their SMILES. Counter-ions that a name gives are not always drawn.

As to `CCOC(=O)[C@@H]1O[C@H]1C(=O)N[C@@H](CC(C)C)C(=O)N1CCN(Cc2ccc(OC)c(OC)c2OC)CC1` [NCO-700, Bis[ethyl (2R,3R)-3-[(S)-3-methyl-1-[4-(2,3,4-trimethoxyphenylmethyl)piperazin-1-ylcarbonyl]butylcarbamoyl]oxirane-2-carboxylate] Sulfate], the “potency relative to Calpain inhibitor 1” value in the experiment with DU-145 (prostate) [1] (DU-145, 100 μM) is reported as approximately 10 fold. For the same molecule, the “anti-cancer activity compared with Calpain inhibitor 1” value in the experiment with DU-145 (prostate) [1] (DU-145, FIG. 33) was “clearly superior to the other inhibitor”. In addition, the “effect on tumor size” value in experiment [2] (10 mg/kg) is listed as “no effect”; in experiment [2] (20 mg/kg), “significant anti-neoplastic effect”; in experiment [2] (40 mg/kg), “highly significant”. Moreover, in experiment [3], the “sensitization of tumor cells to adriamycin and vinblastine” value is “significantly sensitized these tumor cells to the actions of adriamycin (ADR) and vinblastine (VLB)”. Besides, the “anti-neoplastic activity (cell survival)” value in the experiment with DU-145 (prostate) [4] is “significant anti-neoplastic activity”. In addition, the “survival of tumor cells decreased to (fraction)” value with kidney tumor cells is on record as “approximately 1/4”. The “anti-neoplastic activity (% LDH released)” value in the experiment on HS-578T (breast) was “fairly good anti-neoplastic activity”.

Source of the values: patent publication US6054437A, “Method for inducing death of neoplastic cells using piperazine derivatives” (Hitachi Chemical Research Center, Inc., priority 1997, dated 2000).
